Experimental data taken from patent US11268068B2, “In vitro model of metastatic cancer” (THE JOHNS HOPKINS UNIVERSITY, priority 2014, dated 2022).

Experiments:
[1] = test system: parental and rs-monolayer population of Huh7 cells; assay: Chemosensitivity assay (cell viability after 3-BrPA); format: cell-based, human; details: Huh7 (luc-Huh7) cells, rs-monolayer vs parental monolayer, FIG. 7B
Procedure: Assessment of the chemosensitivity of parental cell population and rs-monolayer population was performed using the antiglycolytic agent, 3-bromopyruvate (3-BrPA). In brief, cells were plated in 96-well plates the day before treatment. Analysis of cell viability following the addition of 3-BrPA was performed as described other cell lines^22.

[2] = test system: human cancer cells in 3D-culture; details: Gomes et al., Oncogene 2015; cited from earlier work

Row | Structure (SMILES) | IC50 of rs-monolayer cells compared to the parental population [1] | IC50 of rs-monolayer cells compared to the parental population ([1]; listed as 3-bromopyruvate) | Sensitivity of 3D-culture compared with corresponding monolayer culture [2]
1 | O=C(O)C(=O)CBr [3-BrPA, 3-bromopyruvate] | An increase in IC50 of rs-monolayer cells compared to the parental population | rs-monolayer cells require a higher concentration of drug | 
2 | COc1cccc2c1C(=O)c1c(O)c3c(c(O)c1C2=O)C[C@@](O)(C(=O)CO)C[C@@H]3O[C@H]1C[C@H](N)[C@H](O)[C@H](C)O1 [doxorubicin] |  |  | more sensitive
